Laboratory results taken from ChEMBL document CHEMBL1201862, “PubChem BioAssay data set” (2004).
Active and inactive are the calls of the source.

Experiments:
[1] = target: Glucose-6-phosphate 1-dehydrogenase (Homo sapiens, UniProt P11413); assay: human G6PD enzyme inhibitors, dose response, selectivity assay for P. falciparum G6PD inhibitor project, biochemical, fluorescence (AID 504792); assay type: functional
Cytochrome P450 2C19 = Cytochrome P450 2C19 (Homo sapiens, UniProt P33261); assay: Cytochrome panel assay with activity outcomes. Panel member name: p450-cyp2c19 Compounds with AC50 equal or less than 10 uM are considered active; assay type: functional
Cytochrome P450 2D6 = Cytochrome P450 2D6 (Homo sapiens, UniProt P10635);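 further: CYP2D6 member of a cytochrome P450 panel assay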
Cytochrome P450 3A4 [2] = target: T1, Cytochrome P450 3A4 (Homo sapiens, UniProt P08684);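 further: CYP3A4 tested as one member of a cytochrome P450 panel screen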
Escherichia coli = assay: microbe, parasite or virus in culture
A-375 [3] = assay: MITF: Counter assay: A375 proliferation Measured in Cell-Based System Using Plate Reader - 2084-03_Inhibitor_Dose_DryPowder_Activity. [Related pubchem assays (depositor defined):AID488944]; assay type: functional; conditions: Homo sapiens
HeLa [4] = assay: HeLa cell cytotoxicity, dose response, cytotoxicity control for MITF activator project, CellTiter-Glo luminescence, cherry-pick samples (AID 540259); assay type: functional, cell-based; conditions: Homo sapiens
A-375 [5] = assay: A375 melanoma cell viability reduction, dose response, counter-screen for MITF modulator project, cherry-pick samples, set 2 (AID 540335); assay type: functional, cell-based; conditions: Homo sapiens
[6] = target: T2, Type-1 angiotensin II receptor (Homo sapiens, UniProt P30556); assay: AT1 receptor agonists, dose response, selectivity assay for APJ receptor agonist project, cell-based, uHTS hits (AID 488865); assay type: functional;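 further: beta-arrestin recruitment to AT1 measured by enzyme fragment complementation luminescence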
T2 sequence (P30556 whole entry): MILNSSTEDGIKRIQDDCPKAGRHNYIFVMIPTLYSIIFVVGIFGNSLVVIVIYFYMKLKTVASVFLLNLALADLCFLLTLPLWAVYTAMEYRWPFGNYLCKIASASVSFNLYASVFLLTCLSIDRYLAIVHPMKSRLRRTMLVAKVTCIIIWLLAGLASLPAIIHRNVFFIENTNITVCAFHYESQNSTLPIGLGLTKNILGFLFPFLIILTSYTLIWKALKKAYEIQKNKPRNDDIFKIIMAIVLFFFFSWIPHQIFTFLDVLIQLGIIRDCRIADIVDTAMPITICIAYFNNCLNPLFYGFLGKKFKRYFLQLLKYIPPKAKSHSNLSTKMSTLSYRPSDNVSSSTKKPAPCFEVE

Estrogen receptor = target: T3, Estrogen receptor (Homo sapiens, UniProt P03372);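 further: potency for inhibiting coactivator peptide recruitment to the receptor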
T3 sequence (P03372 whole entry): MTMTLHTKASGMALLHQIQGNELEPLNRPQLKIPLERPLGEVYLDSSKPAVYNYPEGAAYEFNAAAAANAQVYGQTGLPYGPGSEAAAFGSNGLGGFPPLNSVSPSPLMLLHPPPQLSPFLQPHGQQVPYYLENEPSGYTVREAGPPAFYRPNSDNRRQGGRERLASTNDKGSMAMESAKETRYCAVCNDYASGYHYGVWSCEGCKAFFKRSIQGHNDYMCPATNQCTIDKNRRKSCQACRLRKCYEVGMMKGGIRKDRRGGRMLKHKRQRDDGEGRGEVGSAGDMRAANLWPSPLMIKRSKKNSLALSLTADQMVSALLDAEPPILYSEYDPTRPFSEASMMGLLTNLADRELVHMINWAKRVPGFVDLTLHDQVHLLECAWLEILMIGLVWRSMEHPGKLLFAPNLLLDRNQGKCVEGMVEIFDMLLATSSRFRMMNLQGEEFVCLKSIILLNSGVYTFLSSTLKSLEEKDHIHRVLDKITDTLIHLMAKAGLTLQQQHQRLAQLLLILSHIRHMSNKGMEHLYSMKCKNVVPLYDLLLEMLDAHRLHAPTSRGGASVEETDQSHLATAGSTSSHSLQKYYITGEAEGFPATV

Estrogen receptor beta = Estrogen receptor beta (Homo sapiens, UniProt Q92731); assay: ERβ–SRC-3 coactivator interaction inhibitors, confirmation, orthogonal assay, biochemical, ELISA, streptavidin-HRP readout (AID 1060)
[7] = target: Induced myeloid leukemia cell differentiation protein Mcl-1 (Homo sapiens, UniProt Q07820); assay type: functional
[8] = target: DNA dC->dU-editing enzyme APOBEC-3A (Homo sapiens, UniProt P31941); assay: Dose Response confirmation of small molecule APOBEC3A DNA Deaminase Inhibitors via a fluorescence-based single-stranded DNA deaminase assay. [Related pubchem assays (depositor defined):AID493011, AID493024]; assay type: functional
[9] = target: DNA dC->dU-editing enzyme APOBEC-3G (Homo sapiens, UniProt Q9HC16); assay type: functional;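 further: Dose-response counterscreen measuring inhibition of APOBEC3G DNA deaminase activity, run while confirming APOBEC3A inhibitors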
[10] = target: T4, Carboxy-terminal domain RNA polymerase II polypeptide A small phosphatase 1 (Homo sapiens, UniProt Q9GZU7); assay: inhibitors of CTDSP1, concentration-response testing, biochemical assay, absorbance-based, actives from ultra-high-throughput screening (AID 540297); assay type: functional
T4 sequence (Q9GZU7 whole entry): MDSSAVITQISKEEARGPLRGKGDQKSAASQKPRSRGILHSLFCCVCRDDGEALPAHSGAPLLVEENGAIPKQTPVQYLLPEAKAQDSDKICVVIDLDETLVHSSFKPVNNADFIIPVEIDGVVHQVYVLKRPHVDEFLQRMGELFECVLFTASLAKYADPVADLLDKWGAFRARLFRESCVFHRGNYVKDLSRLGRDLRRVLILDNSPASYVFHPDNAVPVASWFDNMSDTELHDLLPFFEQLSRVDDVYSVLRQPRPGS

Cytochrome P450 1A2 = target: T5, Cytochrome P450 1A2 (Homo sapiens, UniProt P05177);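 further: PubChem cytochrome P450 panel assay, CYP1A2 panel member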
T5 sequence (P05177 whole entry): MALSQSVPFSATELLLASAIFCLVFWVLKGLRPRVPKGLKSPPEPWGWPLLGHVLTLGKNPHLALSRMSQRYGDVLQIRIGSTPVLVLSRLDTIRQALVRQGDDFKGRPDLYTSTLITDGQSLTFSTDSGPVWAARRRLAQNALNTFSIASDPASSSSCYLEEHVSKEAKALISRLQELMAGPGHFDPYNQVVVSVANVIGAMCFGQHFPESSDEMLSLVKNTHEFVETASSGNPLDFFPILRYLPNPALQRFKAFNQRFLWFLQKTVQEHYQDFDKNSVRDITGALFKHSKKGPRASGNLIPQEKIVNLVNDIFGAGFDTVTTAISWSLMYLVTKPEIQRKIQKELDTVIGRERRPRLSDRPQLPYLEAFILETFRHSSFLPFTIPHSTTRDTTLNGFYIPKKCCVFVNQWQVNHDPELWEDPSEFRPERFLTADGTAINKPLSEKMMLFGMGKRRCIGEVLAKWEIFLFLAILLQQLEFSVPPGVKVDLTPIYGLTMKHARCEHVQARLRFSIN

Cytochrome P450 3A4 [11] = target: T1, Cytochrome P450 3A4; remark: listed apart in the source
[12] = target: UDP-galactopyranose mutase (Mycobacterium tuberculosis, UniProt P9WIQ1); assay: Inhibitors of Mycobacterium tuberculosis UDP-galactopyranose mutase (UGM) enzyme Measured in Biochemical System Using Plate Reader - 2105-02_Inhibitor_Dose_CherryPick_Activity. [Related pubchem assays (depositor defined):AID504439]
[13] = target: T6, Corticotropin-releasing factor receptor 2/Corticotropin-releasing factor-binding protein (Homo sapiens, UniProt P24387+Q13324); assay: activators of CRF receptor 2 with binding protein – uHTS hits, confirmation (AID 602473); assay type: functional; conditions: read-out: EC50_Mean
T6 sequence (Q13324 whole entry): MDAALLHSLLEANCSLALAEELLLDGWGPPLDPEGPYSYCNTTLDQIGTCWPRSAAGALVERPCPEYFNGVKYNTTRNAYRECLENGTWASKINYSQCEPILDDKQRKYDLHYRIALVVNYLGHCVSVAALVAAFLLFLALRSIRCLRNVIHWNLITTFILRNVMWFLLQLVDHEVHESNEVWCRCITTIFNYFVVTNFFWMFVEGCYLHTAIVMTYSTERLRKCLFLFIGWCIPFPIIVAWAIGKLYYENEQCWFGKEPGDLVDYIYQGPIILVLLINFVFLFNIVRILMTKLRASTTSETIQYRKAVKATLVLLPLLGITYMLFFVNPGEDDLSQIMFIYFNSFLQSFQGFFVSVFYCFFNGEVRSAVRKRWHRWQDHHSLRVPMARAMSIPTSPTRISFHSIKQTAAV
T6 sequence (P24387 whole entry): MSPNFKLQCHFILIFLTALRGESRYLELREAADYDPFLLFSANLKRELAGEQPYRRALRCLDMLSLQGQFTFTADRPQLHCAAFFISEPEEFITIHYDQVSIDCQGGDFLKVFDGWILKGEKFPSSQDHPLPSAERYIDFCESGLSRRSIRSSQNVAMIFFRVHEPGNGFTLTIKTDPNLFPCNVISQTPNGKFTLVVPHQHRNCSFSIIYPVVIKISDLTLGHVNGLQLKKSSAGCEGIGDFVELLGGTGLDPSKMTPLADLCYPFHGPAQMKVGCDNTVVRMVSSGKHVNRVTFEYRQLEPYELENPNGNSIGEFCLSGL

[14] = P. falciparum late gametocyte killing, dose response, luminescence (AID 1117278); assay type: functional, cell-based;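 further: gametocytes exposed to compound for 24 hours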
[15] = Jurkat T cell cytotoxicity, dose response, cytotoxicity control for P. falciparum gametocyte viability project, luminescence (AID 1117277); assay type: functional, cell-based;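 further: potency reflects loss of cellular ATP meaning fewer viable cells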
[16] = target: T7, Mannose-6-phosphate isomerase (Homo sapiens, UniProt P34949); assay: PMI enzyme inhibitors, confirmation, biochemical, fluorescence intensity (AID 1535)
T7 sequence (P34949 whole entry): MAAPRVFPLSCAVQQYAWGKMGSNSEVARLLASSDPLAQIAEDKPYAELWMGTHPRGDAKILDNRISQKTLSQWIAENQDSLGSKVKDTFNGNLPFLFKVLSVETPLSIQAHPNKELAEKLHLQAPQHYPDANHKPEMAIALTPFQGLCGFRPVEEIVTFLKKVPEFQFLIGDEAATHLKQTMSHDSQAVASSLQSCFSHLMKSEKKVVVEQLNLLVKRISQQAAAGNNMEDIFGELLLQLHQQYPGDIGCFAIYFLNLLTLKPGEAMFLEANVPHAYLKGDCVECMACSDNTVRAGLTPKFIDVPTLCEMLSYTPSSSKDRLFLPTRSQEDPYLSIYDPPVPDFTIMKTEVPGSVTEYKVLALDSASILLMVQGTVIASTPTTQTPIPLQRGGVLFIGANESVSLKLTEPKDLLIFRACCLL

[17] = target: T7, Mannose-6-phosphate isomerase; assay: human PMI inhibitors, high substrate, primary screen, biochemical, fluorescence intensity, high mannose 6-phosphate (AID 1220)
Beta-lactamase [18] = target: Beta-lactamase (Pseudomonas aeruginosa, UniProt Q79MP6);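 further: biochemical dose-response test of metallo-beta-lactamase enzyme inhibition, read out by epi-absorbance; purified recombinant IMP-1 metallo-beta-lactamase with nitrocefin as substrate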
Beta-lactamase [19] = target: Beta-lactamase (Salmonella choleraesuis (strain SC-B67), UniProt Q5J463)
HeLa [20] = assay: HeLa cell cytotoxicity, dose response, cytotoxicity control, 24 h, cherry-picked samples (AID 504726); assay type: functional, cell-based; conditions: Homo sapiens;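 further: potency for cytotoxicity as loss of luminescence signal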
ORF 73 = ORF 73 (Human herpesvirus 8, UniProt O40947); assay: inhibitors of C-LANA binding to LBS DNA, dose response, biochemical, fluorescence polarization, cherry-picked samples (AID 504725); parameters: species or system Human gammaherpesvirus 8;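 further: fluorescence polarization of a labeled DNA duplex reporting LANA DNA binding; potency is for inhibitors that block LANA binding to the DNA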
ORF 73, sequence (O40947 whole entry): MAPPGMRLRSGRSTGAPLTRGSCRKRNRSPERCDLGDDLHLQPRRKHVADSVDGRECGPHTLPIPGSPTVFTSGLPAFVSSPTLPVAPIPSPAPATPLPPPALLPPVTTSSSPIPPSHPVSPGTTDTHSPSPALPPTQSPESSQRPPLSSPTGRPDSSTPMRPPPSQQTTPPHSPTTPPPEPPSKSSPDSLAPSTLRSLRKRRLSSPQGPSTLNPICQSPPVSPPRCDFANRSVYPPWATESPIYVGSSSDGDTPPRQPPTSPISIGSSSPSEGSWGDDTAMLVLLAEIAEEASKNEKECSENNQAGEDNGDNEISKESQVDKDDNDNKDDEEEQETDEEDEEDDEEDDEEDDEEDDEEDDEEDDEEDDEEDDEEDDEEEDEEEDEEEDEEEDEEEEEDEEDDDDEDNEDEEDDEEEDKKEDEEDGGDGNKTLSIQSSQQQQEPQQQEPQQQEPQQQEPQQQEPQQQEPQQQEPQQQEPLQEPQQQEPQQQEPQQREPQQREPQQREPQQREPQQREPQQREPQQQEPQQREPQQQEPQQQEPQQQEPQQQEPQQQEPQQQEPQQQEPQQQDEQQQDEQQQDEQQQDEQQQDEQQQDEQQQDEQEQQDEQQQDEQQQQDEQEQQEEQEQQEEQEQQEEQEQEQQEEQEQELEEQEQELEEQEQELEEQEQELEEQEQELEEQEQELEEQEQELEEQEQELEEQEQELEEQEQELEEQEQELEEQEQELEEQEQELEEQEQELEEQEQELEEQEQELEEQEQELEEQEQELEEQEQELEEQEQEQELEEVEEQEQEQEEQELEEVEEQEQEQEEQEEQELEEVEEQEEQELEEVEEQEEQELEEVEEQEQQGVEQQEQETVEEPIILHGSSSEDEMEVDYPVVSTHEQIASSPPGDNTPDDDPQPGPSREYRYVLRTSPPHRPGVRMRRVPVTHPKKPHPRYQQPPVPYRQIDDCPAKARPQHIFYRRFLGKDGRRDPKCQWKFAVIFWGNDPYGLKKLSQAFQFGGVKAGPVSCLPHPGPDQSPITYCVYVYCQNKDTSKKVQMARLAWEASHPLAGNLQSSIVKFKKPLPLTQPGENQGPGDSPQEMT

UDP-galactopyranose mutase, sequence (P9WIQ1 whole entry): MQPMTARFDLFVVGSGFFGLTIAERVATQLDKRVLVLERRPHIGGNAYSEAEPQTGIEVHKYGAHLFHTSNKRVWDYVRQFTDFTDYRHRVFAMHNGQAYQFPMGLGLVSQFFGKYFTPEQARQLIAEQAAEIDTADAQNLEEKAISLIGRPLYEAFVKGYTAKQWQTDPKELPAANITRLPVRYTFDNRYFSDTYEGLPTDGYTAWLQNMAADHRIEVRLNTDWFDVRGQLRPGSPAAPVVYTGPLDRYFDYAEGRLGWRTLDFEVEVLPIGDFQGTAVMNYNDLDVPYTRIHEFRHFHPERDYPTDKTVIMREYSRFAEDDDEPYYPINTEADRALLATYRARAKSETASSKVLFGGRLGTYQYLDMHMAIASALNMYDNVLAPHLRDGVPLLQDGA
T1 sequence (P08684 whole entry): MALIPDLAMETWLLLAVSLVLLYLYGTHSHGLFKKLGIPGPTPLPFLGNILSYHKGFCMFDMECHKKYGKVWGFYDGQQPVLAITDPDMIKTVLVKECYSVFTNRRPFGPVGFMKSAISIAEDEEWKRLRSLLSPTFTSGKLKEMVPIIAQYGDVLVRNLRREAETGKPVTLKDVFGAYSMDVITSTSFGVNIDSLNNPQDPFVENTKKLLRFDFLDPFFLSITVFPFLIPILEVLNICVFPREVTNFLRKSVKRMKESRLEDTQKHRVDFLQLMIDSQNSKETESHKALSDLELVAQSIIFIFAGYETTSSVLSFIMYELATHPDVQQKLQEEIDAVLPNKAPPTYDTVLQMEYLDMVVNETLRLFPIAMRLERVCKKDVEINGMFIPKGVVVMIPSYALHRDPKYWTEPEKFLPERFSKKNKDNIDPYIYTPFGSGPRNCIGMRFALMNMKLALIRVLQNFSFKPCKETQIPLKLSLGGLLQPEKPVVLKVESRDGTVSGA
Glucose-6-phosphate 1-dehydrogenase, sequence (P11413 whole entry): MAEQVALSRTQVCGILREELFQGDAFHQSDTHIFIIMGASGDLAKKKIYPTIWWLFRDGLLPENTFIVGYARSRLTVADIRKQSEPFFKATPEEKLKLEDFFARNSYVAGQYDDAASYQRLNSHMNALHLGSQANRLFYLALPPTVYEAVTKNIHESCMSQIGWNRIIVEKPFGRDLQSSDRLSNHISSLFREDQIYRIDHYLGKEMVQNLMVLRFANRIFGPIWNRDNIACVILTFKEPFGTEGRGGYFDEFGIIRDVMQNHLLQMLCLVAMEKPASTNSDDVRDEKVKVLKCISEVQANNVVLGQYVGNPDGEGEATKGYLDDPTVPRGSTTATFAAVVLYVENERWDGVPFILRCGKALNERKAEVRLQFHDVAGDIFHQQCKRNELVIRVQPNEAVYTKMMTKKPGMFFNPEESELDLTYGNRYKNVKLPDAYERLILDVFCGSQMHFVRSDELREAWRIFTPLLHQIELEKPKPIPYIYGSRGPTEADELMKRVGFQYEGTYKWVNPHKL
Cytochrome P450 2D6, sequence (P10635 whole entry): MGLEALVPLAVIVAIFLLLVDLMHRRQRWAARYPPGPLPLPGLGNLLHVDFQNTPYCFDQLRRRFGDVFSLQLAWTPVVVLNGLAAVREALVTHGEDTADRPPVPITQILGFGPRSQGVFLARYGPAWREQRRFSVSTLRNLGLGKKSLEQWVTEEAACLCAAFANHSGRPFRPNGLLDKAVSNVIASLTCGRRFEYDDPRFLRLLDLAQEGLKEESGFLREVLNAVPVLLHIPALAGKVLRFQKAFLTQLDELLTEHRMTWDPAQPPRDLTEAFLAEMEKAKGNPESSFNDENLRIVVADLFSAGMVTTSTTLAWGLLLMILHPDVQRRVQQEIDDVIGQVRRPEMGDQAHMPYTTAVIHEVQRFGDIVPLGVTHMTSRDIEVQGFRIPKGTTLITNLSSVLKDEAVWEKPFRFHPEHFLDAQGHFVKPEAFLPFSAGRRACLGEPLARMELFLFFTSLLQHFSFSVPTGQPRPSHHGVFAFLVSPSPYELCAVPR
Induced myeloid leukemia cell differentiation protein Mcl-1, sequence (Q07820 whole entry): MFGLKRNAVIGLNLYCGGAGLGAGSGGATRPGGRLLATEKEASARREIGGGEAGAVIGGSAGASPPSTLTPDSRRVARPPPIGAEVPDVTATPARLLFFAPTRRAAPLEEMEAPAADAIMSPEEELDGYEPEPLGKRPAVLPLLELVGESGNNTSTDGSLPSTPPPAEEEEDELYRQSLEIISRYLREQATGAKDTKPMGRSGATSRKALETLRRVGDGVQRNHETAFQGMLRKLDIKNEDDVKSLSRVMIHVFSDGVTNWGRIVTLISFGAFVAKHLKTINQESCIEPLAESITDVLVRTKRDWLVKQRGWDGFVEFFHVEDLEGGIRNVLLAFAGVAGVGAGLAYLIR
Estrogen receptor beta, sequence (Q92731 whole entry): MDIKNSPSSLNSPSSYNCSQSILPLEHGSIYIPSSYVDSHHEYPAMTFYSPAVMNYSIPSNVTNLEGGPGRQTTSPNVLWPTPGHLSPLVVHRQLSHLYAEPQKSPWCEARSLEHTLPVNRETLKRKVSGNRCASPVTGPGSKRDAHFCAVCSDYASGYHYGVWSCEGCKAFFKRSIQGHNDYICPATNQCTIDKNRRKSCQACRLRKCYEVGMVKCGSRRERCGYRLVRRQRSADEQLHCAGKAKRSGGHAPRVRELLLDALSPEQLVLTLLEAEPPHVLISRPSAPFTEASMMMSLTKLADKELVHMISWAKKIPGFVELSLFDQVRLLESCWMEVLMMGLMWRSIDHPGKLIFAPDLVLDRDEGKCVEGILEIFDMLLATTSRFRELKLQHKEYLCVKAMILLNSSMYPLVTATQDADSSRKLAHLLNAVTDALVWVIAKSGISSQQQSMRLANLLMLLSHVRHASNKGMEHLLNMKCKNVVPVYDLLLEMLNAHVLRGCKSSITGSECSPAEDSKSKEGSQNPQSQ
DNA dC->dU-editing enzyme APOBEC-3A, sequence (P31941 whole entry): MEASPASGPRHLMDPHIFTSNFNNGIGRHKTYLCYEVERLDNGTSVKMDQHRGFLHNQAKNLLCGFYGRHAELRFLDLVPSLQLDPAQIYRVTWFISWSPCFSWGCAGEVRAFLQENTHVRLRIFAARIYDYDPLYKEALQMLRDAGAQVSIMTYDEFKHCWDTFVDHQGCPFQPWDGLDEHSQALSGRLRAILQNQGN
DNA dC->dU-editing enzyme APOBEC-3G, sequence (Q9HC16 whole entry, the tested form may be a part): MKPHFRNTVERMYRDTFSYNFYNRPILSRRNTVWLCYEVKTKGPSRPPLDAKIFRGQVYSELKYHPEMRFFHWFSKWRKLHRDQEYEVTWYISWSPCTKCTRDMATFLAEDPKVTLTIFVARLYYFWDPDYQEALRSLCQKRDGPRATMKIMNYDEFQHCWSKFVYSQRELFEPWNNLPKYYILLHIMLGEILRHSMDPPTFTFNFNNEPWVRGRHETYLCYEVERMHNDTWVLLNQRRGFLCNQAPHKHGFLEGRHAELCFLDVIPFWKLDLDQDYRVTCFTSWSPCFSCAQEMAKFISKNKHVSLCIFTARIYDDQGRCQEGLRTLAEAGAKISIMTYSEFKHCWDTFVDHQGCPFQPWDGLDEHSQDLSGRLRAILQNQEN
Beta-lactamase (Pseudomonas aeruginosa, UniProt Q79MP6), sequence (Q79MP6 whole entry): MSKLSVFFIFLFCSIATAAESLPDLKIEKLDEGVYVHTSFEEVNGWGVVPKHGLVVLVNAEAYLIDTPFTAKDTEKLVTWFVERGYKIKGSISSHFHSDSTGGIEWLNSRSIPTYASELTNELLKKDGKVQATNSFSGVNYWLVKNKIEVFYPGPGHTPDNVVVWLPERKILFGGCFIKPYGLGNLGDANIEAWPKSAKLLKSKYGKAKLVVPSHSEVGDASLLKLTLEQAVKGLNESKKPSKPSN

Q: For Cc1ccc(-c2nn(C)c(=O)c3ccccc23)cc1CNC(=O)/C=C/c1ccccc1, which IC50 [1] is on record?
A: Its IC50 is 49.5 µM (inactive).

Q: Which results are given for C=C(C)CNCC(=C)C.Oc1c(Cl)c(Cl)c(Cl)c(Cl)c1Cl?
A: AC50 (Cytochrome P450 2C19): inconclusive; AC50 (Cytochrome P450 2D6): inactive; AC50 (Cytochrome P450 3A4 [2]): inactive

Q: Which AC50 (Escherichia coli) does the source give for COc1c2ccoc2nc2c(OC)c(OC[C@@H](O)C(C)(C)O)ccc12 here?
A: Its AC50 is 54.2 µM (active).

Q: For COc1ccccc1N1CCN(/N=C/c2cccc(Cl)c2)CC1, which AC50 (A-375 [3]) is on record?
A: The AC50 was > 35 µM (active).

Q: What about the AC50 (HeLa [4]) of the same compound?
A: The AC50 was 161 µM (active).

Q: And the AC50 (A-375 [5])?
A: Its AC50 is > 35 µM (active).

Q: With COc1ccccc1-n1c(O)cc(=O)nc1SC as the compound, how does the EC50 [6] read?
A: Its EC50 is > 100 µM (inactive).

Q: What does the source list for O=C(Cc1ccc(S(=O)(=O)N2CCOCC2)s1)Nc1nc2c(s1)CCCC2?
A: IC50 (Estrogen receptor): 4.69 µM (active); IC50 (Estrogen receptor beta): 5.27 µM (not active); IC50 [7]: 4.44 µM (active); IC50 [8]: 10.5 µM (active); IC50 [9]: 33.7 µM (active); IC50 [10]: 3.2 µM (active); AC50 (Cytochrome P450 1A2): 28.2 µM (inconclusive); AC50 (Cytochrome P450 3A4 [11]): 14.1 µM (inconclusive)

Q: Which results are given for O=C(NCc1ccc(OC(F)(F)F)cc1)c1cccc2c1C(=O)c1ccc(N3CCCCC3)cc1S2(=O)=O?
A: AC50 [12]: 7.54 µM (active); EC50 [13]: 6.58 µM (active); IC50 [14]: > 109 µM (inactive); IC50 [15]: > 83.3 µM (inactive)

Q: Which IC50 [16] does the source give for CCOC(=O)c1nnc(/N=c2\ssnc2Cl)o1 here?
A: Its IC50 is 32.5 µM (active).

Q: With CC(=O)O.CN1CCN(CN2C(=O)C3C4C=CC(C3C2=O)C2C3C(=O)N(CN5CCN(C)CC5)C(=O)C3C42)CC1 (configuration not stated) as the compound, how does the AC50 (Cytochrome P450 2D6) read?
A: The AC50 was “inconclusive”.

Q: With C=CCSc1nc2sc3c(c2c(=O)n1CC)CCc1ccccc1-3 as the compound, how does the IC50 [17] read?
A: Its IC50 is 13.5 µM (active).

Q: And the IC50 [1]?
A: The IC50 was > 80 µM (inactive).

Q: Which results are given for Cc1ccc(NC(=O)Nc2ccccc2)nc1?
A: AC50 (A-375 [3]): > 35 µM (active); AC50 (A-375 [5]): > 35 µM (active)

Q: Which IC50 (Beta-lactamase [18]) does the source give for Cc1nn(C)c(C)c1N1C(=O)c2cccc3c(N)ccc(c23)C1=O here?
A: Its IC50 is 9.3 µM (active).

Q: And the IC50 (Beta-lactamase [19])?
A: The IC50 was 5.25 µM (active).

Q: What about the AC50 (HeLa [20]) of the same compound?
A: The AC50 was 264 µM (active).

Q: What about the AC50 (ORF 73) of the same compound?
A: Its AC50 is 0.81 µM (active).

Q: And the AC50 [12]?
A: The AC50 was 1.39 µM (active).
